Test [1] has as its system gastrointestinal iron absorption. The note with it: cited from earlier work.
For test [2] the following is noted: daily administration, 50 mg of elemental iron; based on generally accepted iron absorption rates.
[3] abbreviates: intravenous administration of the promoter.
[4] abbreviates: oral administration of the promoter.

Like-named read-outs stand apart in the source and are kept apart here.

For the compound `O=C1O[C@H]([C@@H](O)CO)C(O)=C1O` [Ascorbic acid, ascorbic acid], the entries for the “effect on gastrointestinal iron absorption” value in test [1] (setting [3]) and in test [1] (setting [4]) were “not increased” and “enhance gastrointestinal iron absorption”, respectively.
As for `O=C(O)CCC(=O)O` [Succinic acid, succinic acid], the “effect on gastrointestinal iron absorption” value in test [1] (setting [3]) and in test [1] (setting [4]) was “enhance gastrointestinal iron absorption” in each case.
On to ferrous sulfate, for which, in test [2], the “time required to supply 450 mg of iron for RBC regeneration and 300 mg of iron to replenish iron stores” value is “approximately 9 months”.

These data come from patent publication US20090035385A1, “COMPOSITIONS INCLUDING IRON” (DRUGTECH CORPORATION, priority 2004, published 2009).
